Reference: US7304093B2, “Ketone compounds and compositions for cholesterol management and related uses” (Esperion Therapeutics, Inc., priority 2000, dated 2007)
Where two headings read alike, the source gives them in different places. Marks after values point to notes of the source that are not given here.

System: female obese Zucker rats
Assay: Serum lipid and glycemic control variables in chow-fed obese female Zucker rats, daily oral gavage for two weeks
Type: in vivo, rat
Details: for change in vivo at 100 mg/kg: Rattus norvegicus, Table 9; for Glucose / HDL-C / NEFA / Non-HDL-C / TG / Insulin: serum, mean ± SEM; for Insulin: Table 12
Method in brief: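 Female obese Zucker fa rats, 10–12 wk, 400–500 g, chow-fed, dosed daily by oral gavage for 14 days in CMC/Tween 20 or ethanol/PEG-200 vehicle. After a 6-h fast, serum was sampled pre-dose, day 7 and day 14. Triglycerides, total cholesterol, NEFA and β-hydroxybutyrate were measured, plus lipoprotein cholesterol by gel-filtration profiling.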

For CC(C)(CCCCCC(=O)CCCCCC(C)(C)C(=O)O)C(=O)O [Compound 210g, 2,2,14,14-Tetramethyl-8-oxopentadecanedioic acid], the “NEFA, percent increase (+) or decrease (−) of the pretreatment control value” (from here on “NEFA, percent increase (+) or decrease”) (3 mg/kg daily oral, 1 wk) was “(−15) percent”, the “Glucose, percent increase (+) or decrease (−) of the pretreatment control value” (3 mg/kg daily oral, 2 wk) was “(+108) percent” and the “NEFA, percent increase (+) or decrease” value (3 mg/kg daily oral, 2 wk) was “(−23) percent”. The “HDL-C, percent increase (+) or decrease (−) of the pretreatment control value” (10 mg/kg daily oral, 1 wk) was “(+158) percent”, the “NEFA, percent increase (+) or decrease” value (10 mg/kg daily oral, 1 wk) was “(−17) percent” and the “TG, percent increase (+) or decrease (−) of the pretreatment control value” (from here on “TG, percent increase (+) or decrease (−)”) (10 mg/kg daily oral, 1 wk) was “(−36) percent”. For the same compound, the “HDL-C, percent increase (+) or decrease (−) of the pretreatment control value” (10 mg/kg daily oral, 2 wk) was “(+160) percent”, the “NEFA, percent increase (+) or decrease” value (10 mg/kg daily oral, 2 wk) was “(−21) percent” and the “Non-HDL-C, percent increase (+) or decrease (−) of the pretreatment control value” (10 mg/kg daily oral, 2 wk) was “(+155) percent”. The “HDL-C, percent increase (+) or decrease (−) of the pretreatment control value” (30 mg/kg daily oral, 1 wk) was “(+256) percent”, the “Insulin, percent increase (+) or decrease (−) of the pretreatment control value” (30 mg/kg daily oral, 1 wk) was “(−35) percent” and the “NEFA, percent increase (+) or decrease” value (30 mg/kg daily oral, 1 wk) was “(−32) percent”. For the same compound, the “Non-HDL-C, percent increase (+) or decrease (−) of the pretreatment control value” (30 mg/kg daily oral, 1 wk) was “(−48) percent”, the “TG, percent increase (+) or decrease (−)” value (30 mg/kg daily oral, 1 wk) was “(−78) percent” and the “HDL-C, percent increase (+) or decrease (−) of the pretreatment control value” (30 mg/kg daily oral, 2 wk) was “(+335) percent”. The “Insulin, percent increase (+) or decrease (−) of the pretreatment control value” (30 mg/kg daily oral, 2 wk) was “(−21) percent”, the “NEFA, percent increase (+) or decrease” value (30 mg/kg daily oral, 2 wk) was “(−49) percent” and the “TG, percent increase (+) or decrease (−)” value (30 mg/kg daily oral, 2 wk) was “(−52) percent”. For the same compound, the “Glucose, percent increase (+) or decrease (−) of the pretreatment control value” (100 mg/kg daily oral, 1 wk) was “(−21) percent”, the “HDL-C, percent increase (+) or decrease (−) of the pretreatment control value” (100 mg/kg daily oral, 1 wk) was “(+151) percent” and the “Insulin, percent increase (+) or decrease (−) of the pretreatment control value” (100 mg/kg daily oral, 1 wk) was “(−46) percent”. The “NEFA, percent increase (+) or decrease” value (100 mg/kg daily oral, 1 wk) was “(−30) percent”, the “Non-HDL-C, percent increase (+) or decrease (−) of the pretreatment control value” (100 mg/kg daily oral, 1 wk) was “(−92) percent” and the “TG, percent increase (+) or decrease (−)” value (100 mg/kg daily oral, 1 wk) was “(−93) percent”. The “Glucose, percent increase (+) or decrease (−) of the pretreatment control value” (100 mg/kg daily oral, 2 wk) was “(−10) percent”, the “HDL-C, percent increase (+) or decrease (−) of the pretreatment control value” (100 mg/kg daily oral, 2 wk) was “(+213) percent” and the “Insulin, percent increase (+) or decrease (−) of the pretreatment control value” (100 mg/kg daily oral, 2 wk) was “(−50) percent”. For the same compound, the “NEFA, percent increase (+) or decrease” value (100 mg/kg daily oral, 2 wk) was “(−52) percent”, the “Non-HDL-C, percent increase (+) or decrease (−) of the pretreatment control value” (100 mg/kg daily oral, 2 wk) was “(−88) percent” and the “TG, percent increase (+) or decrease (−)” value (100 mg/kg daily oral, 2 wk) was “(−92) percent”. It also gave a change in vivo at 100 mg/kg (168 h, 100 mg/kg daily oral, 1 wk, read-out: HDL-Cholesterol, Percent Change from Pre-Treatment) of 72%, a change in vivo at 100 mg/kg (168 h, 100 mg/kg daily oral, 1 wk, read-out: NonHDL-Cholesterol, Percent Change from Pre-Treatment) of -98% and a change in vivo at 100 mg/kg (168 h, 100 mg/kg daily oral, 1 wk, read-out: TG, Percent Change from Pre-Treatment) of -93%. The change in vivo at 100 mg/kg (336 h, 100 mg/kg daily oral, 2 wk, read-out: HDL-Cholesterol, Percent Change from Pre-Treatment) was 168%, the change in vivo at 100 mg/kg (336 h, 100 mg/kg daily oral, 2 wk, read-out: NonHDL-Cholesterol, Percent Change from Pre-Treatment) was -99% and the change in vivo at 100 mg/kg (336 h, 100 mg/kg daily oral, 2 wk, read-out: TG, Percent Change from Pre-Treatment) was -94%. It also gave a Glucose (3 mg/kg daily oral, 1 wk) of 117 ± 4 mg/dL, an HDL-C (3 mg/kg daily oral, 1 wk) of 75 ± 6 mg/dL and an NEFA (3 mg/kg daily oral, 1 wk) of 1.1 ± 0.07. For the same compound, the Non-HDL-C (3 mg/kg daily oral, 1 wk) was 23 ± 2 mg/dL, the TG (3 mg/kg daily oral, 1 wk) was 995 ± 50^a mg/dl and the Insulin (3 mg/kg daily oral, 1 wk) was 10.0 ± 1.0 ng/mL. The Glucose (3 mg/kg daily oral, 2 wk) was 124 ± 4^a mg/dl, the HDL-C (3 mg/kg daily oral, 2 wk) was 77 ± 8 mg/dL and the NEFA (3 mg/kg daily oral, 2 wk) was 1.0 ± 0.10. It also gave a Non-HDL-C (3 mg/kg daily oral, 2 wk) of 25 ± 2 mg/dL, a TG (3 mg/kg daily oral, 2 wk) of 833 ± 57 mg/dL and an Insulin (3 mg/kg daily oral, 2 wk) of 7.3 ± 0.5 ng/mL. For the same compound, the Glucose (10 mg/kg daily oral, 1 wk) was 122 ± 3 mg/dL, the HDL-C (10 mg/kg daily oral, 1 wk) was 136 ± 11^a mg/dl and the NEFA (10 mg/kg daily oral, 1 wk) was 1.0 ± 0.07. The Non-HDL-C (10 mg/kg daily oral, 1 wk) was 22 ± 2 mg/dL, the TG (10 mg/kg daily oral, 1 wk) was 553 ± 35^a mg/dl and the Insulin (10 mg/kg daily oral, 1 wk) was 10.5 ± 1.1 ng/mL. For the same compound, the Glucose (10 mg/kg daily oral, 2 wk) was 125 ± 4 mg/dL, the HDL-C (10 mg/kg daily oral, 2 wk) was 138 ± 8^a mg/dl and the NEFA (10 mg/kg daily oral, 2 wk) was 0.95 ± 0.08. For the same compound, the Non-HDL-C (10 mg/kg daily oral, 2 wk) was 34 ± 3^a mg/dl, the TG (10 mg/kg daily oral, 2 wk) was 865 ± 69 mg/dL and the Insulin (10 mg/kg daily oral, 2 wk) was 9.1 ± 0.7 ng/mL. The Glucose (30 mg/kg daily oral, 1 wk) was 108 ± 4 mg/dL, the HDL-C (30 mg/kg daily oral, 1 wk) was 159 ± 12^a mg/dl and the NEFA (30 mg/kg daily oral, 1 wk) was 0.88 ± 0.06. For the same compound, the Non-HDL-C (30 mg/kg daily oral, 1 wk) was 14 ± 2^a mg/dl, the TG (30 mg/kg daily oral, 1 wk) was 213 ± 19^a mg/dl and the Insulin (30 mg/kg daily oral, 1 wk) was 6.4 ± 0.6^a ng/ml. The Glucose (30 mg/kg daily oral, 2 wk) was 130 ± 4 mg/dL, the HDL-C (30 mg/kg daily oral, 2 wk) was 208 ± 14^a mg/dl and the NEFA (30 mg/kg daily oral, 2 wk) was 0.66 ± 0.03. The Non-HDL-C (30 mg/kg daily oral, 2 wk) was 30 ± 2 mg/dL, the TG (30 mg/kg daily oral, 2 wk) was 475 ± 38^a mg/dl and the Insulin (30 mg/kg daily oral, 2 wk) was 7.7 ± 0.9^a ng/ml. For the same compound, the Glucose (100 mg/kg daily oral, 1 wk) was 92 ± 4^a mg/dl, the HDL-C (100 mg/kg daily oral, 1 wk) was 100 ± 8^a mg/dl and the NEFA (100 mg/kg daily oral, 1 wk) was 0.98 ± 0.08. For the same compound, the Non-HDL-C (100 mg/kg daily oral, 1 wk) was 2 ± 1^a mg/dl, the TG (100 mg/kg daily oral, 1 wk) was 69 ± 5^a mg/dl and the Insulin (100 mg/kg daily oral, 1 wk) was 6.4 ± 1.3^a ng/ml. The Glucose (100 mg/kg daily oral, 2 wk) was 105 ± 3^a mg/dl, the HDL-C (100 mg/kg daily oral, 2 wk) was 141 ± 12^a mg/dl and the NEFA (100 mg/kg daily oral, 2 wk) was 0.66 ± 0.08. The Non-HDL-C (100 mg/kg daily oral, 2 wk) was 3 ± 1^a mg/dl, the TG (100 mg/kg daily oral, 2 wk) was 78 ± 10^a mg/dl and the Insulin (100 mg/kg daily oral, 2 wk) was 6.0 ± 0.8^a ng/ml.
